PubChem BioAssay (NCI)
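Compound exposure: 48 hours, 5 concentrations, 96-well plates. The concentration for 50% growth inhibition is given as GI50. Definition used: TGI = concentration required for complete inhibition of growth.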

Key:
Assay in all cases: NCI anticancer screen, dose series, 48 h
SW-620 colon = system: SW-620 colon
M14 melanoma = system: M14 melanoma
SF-268 CNS = system: SF-268 CNS
HCT-116 colon = system: HCT-116 colon
NCI-H23 lung = system: NCI-H23 lung
LOX IMVI melanoma = system: LOX IMVI melanoma
MCF7 breast = system: MCF7 breast
K-562 leukemia = system: K-562 leukemia
DU-145 prostate = system: DU-145 prostate
NCI/ADR-RES ovarian = system: NCI/ADR-RES ovarian

## Cc1ccc(/C=C(\NC(=O)c2ccccc2)c2nc3ccccc3[nH]2)cc1
SW-620 colon
  TGI: > 100 µM
M14 melanoma
  TGI: > 100 µM
SF-268 CNS
  TGI: > 100 µM
HCT-116 colon
  TGI: > 100 µM
NCI-H23 lung
  TGI: > 100 µM

## O=Nc1c(-c2c(O)[nH]c3cc(Br)ccc23)[nH]c2ccccc12
LOX IMVI melanoma
  GI50: 1.1 µM
  TGI: 2.55 µM
M14 melanoma
  GI50: 1.76 µM
  TGI: 3.48 µM
SF-268 CNS
  GI50: 1.52 µM
  TGI: 3.66 µM
HCT-116 colon
  GI50: 0.883 µM
  TGI: 2.27 µM
MCF7 breast
  GI50: 1.83 µM
  TGI: 7.79 µM
K-562 leukemia
  GI50: 1.19 µM
  TGI: > 100 µM
NCI-H23 lung
  GI50: 1.63 µM
  TGI: 4.28 µM
DU-145 prostate
  GI50: 1.23 µM
  TGI: 2.56 µM
NCI/ADR-RES ovarian
  GI50: 1.42 µM
  TGI: 4.48 µM

## Cc1[nH]c2ccccc2c1CC/C(=N\Nc1ccccc1)c1ccccc1
SW-620 colon
  TGI: > 100 µM
M14 melanoma
  TGI: > 100 µM
HCT-116 colon
  TGI: > 100 µM
K-562 leukemia
  TGI: > 100 µM
NCI-H23 lung
  TGI: > 100 µM

## COc1cc(/C=C/c2cc(/C=C/c3ccc(O)c(OC)c3)n(C(=O)Nc3ccccc3Cl)n2)ccc1O
SW-620 colon
  GI50: 0.389 µM
  TGI: 1.69 µM
LOX IMVI melanoma
  GI50: 0.193 µM
  TGI: 1.39 µM
M14 melanoma
  GI50: 0.283 µM
  TGI: 1.19 µM
SF-268 CNS
  GI50: 0.529 µM
  TGI: 3.18 µM
MCF7 breast
  GI50: 0.29 µM
  TGI: 1.4 µM
K-562 leukemia
  GI50: 0.301 µM
  TGI: 3.11 µM
NCI-H23 lung
  GI50: 0.33 µM
  TGI: 2.46 µM
DU-145 prostate
  GI50: 0.472 µM
  TGI: 1.64 µM
NCI/ADR-RES ovarian
  GI50: 0.247 µM
  TGI: 7.91 µM

## CSc1ccc2c(cc1=O)[C@@H](NC(=O)c1ccc(Cl)cc1)CCc1cc(O)c(O)c(O)c1-2
SW-620 colon
  TGI: 37.1 µM
LOX IMVI melanoma
  TGI: 33.6 µM
M14 melanoma
  TGI: > 100 µM
SF-268 CNS
  TGI: > 100 µM
HCT-116 colon
  TGI: 32.1 µM
K-562 leukemia
  TGI: 68.3 µM
NCI-H23 lung
  TGI: > 100 µM

## CCC1C(C(=O)Nc2ccccc2C)=C(C)NC(C)=C1c1ccccc1C (stereo unspecified)
SW-620 colon
  TGI: > 59.9 µM
LOX IMVI melanoma
  TGI: > 100 µM
M14 melanoma
  TGI: > 100 µM
SF-268 CNS
  TGI: > 61.1 µM
HCT-116 colon
  TGI: > 77.6 µM
K-562 leukemia
  TGI: > 100 µM
NCI-H23 lung
  TGI: > 100 µM

## O=C(Cc1nc2ccccc2o1)C(=O)Nc1cccc(Cl)c1
SW-620 colon
  TGI: > 100 µM
M14 melanoma
  TGI: > 100 µM
SF-268 CNS
  TGI: > 100 µM
HCT-116 colon
  TGI: > 100 µM
K-562 leukemia
  TGI: > 100 µM
NCI-H23 lung
  TGI: > 100 µM

## CCN(CC)CC(C)C(=O)/C=C/c1ccc(C)cc1 (stereo unspecified)
SW-620 colon
  TGI: 2.96 µM
LOX IMVI melanoma
  TGI: 2.69 µM
M14 melanoma
  TGI: 4.85 µM
SF-268 CNS
  TGI: 4.51 µM
HCT-116 colon
  TGI: 3.16 µM
K-562 leukemia
  TGI: > 100 µM
NCI-H23 lung
  TGI: 19.9 µM

## O=C(NCCCl)Nc1cccnc1
SW-620 colon
  TGI: > 100 µM
LOX IMVI melanoma
  TGI: 55.3 µM
M14 melanoma
  TGI: > 100 µM
HCT-116 colon
  TGI: 32 µM
MCF7 breast
  TGI: > 100 µM
K-562 leukemia
  TGI: > 100 µM
NCI-H23 lung
  TGI: 46.2 µM
DU-145 prostate
  TGI: 29.4 µM
NCI/ADR-RES ovarian
  TGI: 47.7 µM

## COc1cc2oc(-c3ccccc3)cc(=O)c2c(O)c1C
SW-620 colon
  TGI: > 100 µM
LOX IMVI melanoma
  TGI: > 100 µM
M14 melanoma
  TGI: > 100 µM
SF-268 CNS
  TGI: > 100 µM
HCT-116 colon
  TGI: > 100 µM
K-562 leukemia
  TGI: > 100 µM
NCI-H23 lung
  TGI: > 100 µM

## O=C(/C=C/c1ccccc1O)c1ccc([N+](=O)[O-])cc1
SW-620 colon
  TGI: 31.3 µM
LOX IMVI melanoma
  TGI: 33.4 µM
M14 melanoma
  TGI: 52.2 µM
SF-268 CNS
  TGI: 66.9 µM
HCT-116 colon
  TGI: 29 µM
K-562 leukemia
  TGI: 71.6 µM
NCI-H23 lung
  TGI: 25.4 µM

## CSc1nc2nn(Cc3ccccc3)cc2c(=O)[nH]1
SW-620 colon
  TGI: > 100 µM
LOX IMVI melanoma
  TGI: > 100 µM
M14 melanoma
  TGI: > 100 µM
SF-268 CNS
  TGI: > 100 µM
HCT-116 colon
  TGI: > 100 µM
K-562 leukemia
  TGI: > 100 µM
NCI-H23 lung
  TGI: > 100 µM

## CN(C)CCC(CCN(C)C)=NO
SW-620 colon
  TGI: > 100 µM
M14 melanoma
  TGI: > 100 µM
SF-268 CNS
  TGI: > 100 µM
HCT-116 colon
  TGI: > 100 µM
K-562 leukemia
  TGI: > 100 µM
NCI-H23 lung
  TGI: > 100 µM

## O=C(OCCCl)C1OC(n2cc(F)c(=O)[nH]c2=O)CC1O (stereo unspecified)
SW-620 colon
  TGI: > 100 µM
LOX IMVI melanoma
  TGI: > 100 µM
M14 melanoma
  TGI: > 100 µM
SF-268 CNS
  TGI: > 100 µM
HCT-116 colon
  TGI: > 100 µM
K-562 leukemia
  TGI: > 100 µM
NCI-H23 lung
  TGI: > 100 µM

## CCn1c2ccccc2c(=O)c2c(OC)ccc(OC)c21
SW-620 colon
  TGI: > 100 µM
LOX IMVI melanoma
  TGI: > 100 µM
M14 melanoma
  TGI: > 100 µM
SF-268 CNS
  TGI: > 100 µM
HCT-116 colon
  TGI: > 100 µM
K-562 leukemia
  TGI: > 100 µM
NCI-H23 lung
  TGI: > 100 µM

## CC(=O)CC/C=C(\C)[C@H](O)[C@H](C)C(=O)O[C@H]1C[C@H](C)C=C2C=C[C@@]3(C)O[C@@H](O)CC(=O)[C@]3(C)[C@H]21
SW-620 colon
  GI50: 0.449 µM
  TGI: 9.03 µM
LOX IMVI melanoma
  GI50: 0.279 µM
  TGI: 1.69 µM
M14 melanoma
  GI50: 0.906 µM
  TGI: 2.38 µM
SF-268 CNS
  GI50: 0.612 µM
  TGI: 5.63 µM
HCT-116 colon
  GI50: 0.307 µM
  TGI: 1.89 µM
MCF7 breast
  GI50: 0.5 µM
  TGI: 6.19 µM
NCI-H23 lung
  GI50: 0.384 µM
  TGI: 2.44 µM
DU-145 prostate
  GI50: 0.332 µM
  TGI: 4.16 µM
NCI/ADR-RES ovarian
  GI50: 1.44 µM
  TGI: 11.7 µM

## C=CC(=O)NC(N)=NC#N
SW-620 colon
  GI50: 160 µM
  TGI: 314 µM
LOX IMVI melanoma
  GI50: 129 µM
  TGI: 273 µM
M14 melanoma
  TGI: 292 µM
SF-268 CNS
  TGI: 260 µM
HCT-116 colon
  TGI: 329 µM
K-562 leukemia
  GI50: 136 µM
  TGI: 445 µM
NCI-H23 lung
  TGI: 344 µM

## O=C(N/C(=C\c1cccc([N+](=O)[O-])c1)c1nc2ccccc2[nH]1)c1ccccc1
SW-620 colon
  TGI: > 100 µM
M14 melanoma
  TGI: > 100 µM
SF-268 CNS
  TGI: > 100 µM
HCT-116 colon
  TGI: > 100 µM
K-562 leukemia
  TGI: > 100 µM
NCI-H23 lung
  TGI: > 100 µM

## N#CC1=C(N)NC(=S)NC12Nc1ccccc1S2 (stereo unspecified)
SW-620 colon
  GI50: 36.7 µM
  TGI: > 100 µM
LOX IMVI melanoma
  GI50: 17 µM
  TGI: 44.7 µM
M14 melanoma
  GI50: 40.1 µM
  TGI: > 100 µM
HCT-116 colon
  GI50: > 100 µM
  TGI: > 100 µM
K-562 leukemia
  GI50: 30.3 µM
  TGI: > 100 µM
NCI-H23 lung
  GI50: 31.4 µM
  TGI: > 100 µM
DU-145 prostate
  GI50: 17.2 µM
  TGI: > 100 µM
NCI/ADR-RES ovarian
  GI50: 26.7 µM
  TGI: 88.7 µM

## C=C1C(=O)O[C@H]2[C@H](OC(C)=O)[C@@H](C)CCCC3(C)OC3CCC3(CO3)[C@H](O)C[C@@H]12 (stereo partly specified)
SW-620 colon
  GI50: 5.16 µM
  TGI: 19.6 µM
LOX IMVI melanoma
  GI50: 12.6 µM
  TGI: 25.2 µM
M14 melanoma
  GI50: 11.1 µM
  TGI: 23.6 µM
SF-268 CNS
  GI50: 15.2 µM
  TGI: 40.4 µM
HCT-116 colon
  GI50: 3.7 µM
  TGI: 13.1 µM
MCF7 breast
  GI50: 5.02 µM
  TGI: 28.7 µM
DU-145 prostate
  GI50: 3.92 µM
  TGI: 14.3 µM

## COC(=O)c1ncc2c(=O)[nH]c3ccccc3c2c1C(=O)OC
SW-620 colon
  TGI: > 100 µM
LOX IMVI melanoma
  TGI: > 100 µM
M14 melanoma
  TGI: > 100 µM
SF-268 CNS
  TGI: > 100 µM
HCT-116 colon
  TGI: > 100 µM
K-562 leukemia
  TGI: > 100 µM
NCI-H23 lung
  TGI: > 100 µM

## Oc1ccc2ccccc2c1N=Nc1cc(Cl)ccc1Cl
SW-620 colon
  TGI: > 50 µM
M14 melanoma
  TGI: > 50 µM
SF-268 CNS
  TGI: > 50 µM
HCT-116 colon
  TGI: 48.1 µM
K-562 leukemia
  TGI: > 50 µM
NCI-H23 lung
  TGI: > 50 µM
NCI/ADR-RES ovarian
  TGI: > 50 µM
